Several values for one entry are separate records, joined by “and”; a condition that tells them apart may be missing. Equal entries are not always repeated.
Columns and labels:
[1] = system: Mycoplasma pneumoniae strain M129 (ATCC 29342); test: Time-kill curves; format: cell-based; set-up: M. pneumoniae count in time-kill curve: unit not given here
Method in brief: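 Strain grown at 37 °C, 5% CO2 in modified SP-4 broth (pH 7.4, 20% FBS). Cultures incubated 72 h, sampled every 12 h, 10-fold serially diluted and plated on SP-4 agar; colonies counted after 7 d. Three repeats.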

[2] = system: Mycoplasma pneumoniae-infected mice (lung tissue); test: Histopathological assessment of lung tissue (HPS, response and recovery rates) in M. pneumoniae-infected mice; format: in vivo, BALB/c mice; set-up: HPS value (mean) / HPS: scale not given here; conditions: for HPS: individual mice
Experimental: Adult BALB/c mice (20–22 g) were divided into a control group, a positive group, and compound 16C groups at low (20 mg/kg), medium (40 mg/kg), and high-dose (80 mg/kg) levels and oral and intramuscular tiamulin treatment groups (40 mg/kg). We formulated the above dose range based on the dose at which tiamulin was approved for injection (10–20 mg/kg) and the dose previously reported (45 mg/kg) ([EMA, 1999]; [Xiao et al., 2016]). In summary, we selected similar doses for compound 16C in vivo study. 40 mg/kg was used as an intermediate value, one-half of it as a low dose, and two times of it as a high dose. To prepare the challenge solution, logarithmic phase culture suspensions were centrifuged at 1700 g for 10 min, and the pellets were suspended in sterile PBS to obtain 1 × 10^9 CFU/mL. Before the challenge, mice were anesthetized with tribromoethanol (250 mg/kg, IP). Mice in the control groups were intratracheally inoculated with sterile PBS, whereas mice in the other groups were intratracheally challenged with 50 μL (1 × 10^9 CFU/mL) M. pneumoniae suspension once a day for 3 days. Compound 16C and tiamulin (tiamulin-IM group) dissolved using the method mentioned in pharmacokinetic studies, and the tiamulin fumarate soluble powder was dissolved in ddH2O for oral administration. After the final challenge, antibiotics were administered at low, medium, and high-dose levels (see above) at 10 a.m. and 10 p.m. daily for 4 consecutive days. Normal saline containing 5% DMSO and 5% Tween-80 was administered as control and positive groups by thigh intramuscular injection. To compare the efficacy of compound 16C and tiamulin under the same route of administration, we used the original tiamulin for intramuscular administration in the same formulation. On the other hand, tiamulin fumarate soluble powder, approved for oral administration to treat animal mycoplasma diseases in China, was administered to mice by gavage. Based on a clinical study of lefamulin in community-acquired bacterial pneumonia (CABP), subjects were administered twice a day and the 96 ± 24 h of starting treatment was an essential point for early clinical response (ECR) ([Paukner et al., 2022]). We therefore stopped treatment at 96 h and sampled at 192 h to explore whether the disease worsened after cessation of treatment. Bronchoalveolar lavage fluid (BALF) and lungs were collected at 0, 96, 192 h (Samples of 0 h were collected before starting treatment, and mice were fed ad libitum without drug treatment during 96–192 h) after the first dose, BALF for cytokine and cytological analysis and lung for histopathological evaluation.
Lung tissues were collected at 0, 96, and 192 h following drug administration. Lungs were collected from 6 mice in each group at 96 h and 13–15 mice in each group at 192 h. In addition, the lungs of 8 untreated infected mice were taken at 0 h as initial controls. Lung tissues were fixed in 4% paraformaldehyde, and whole-mount sections of paraffin-embedded lungs were stained with hematoxylin and eosin (H&E). The histopathologic score (HPS) was determined according to published protocols by a single pathologist who was unaware of the treatment status and groups of the animals ([Cimolai et al., 1992]). The HPS was based on individual grading of peribronchiolar/bronchial infiltrate, bronchiolar/bronchial luminal exudate, perivascular infiltrate, and parenchymal pneumoniae.

[3] = M. pneumoniae-infected mice, 20mg/kg, intramuscular, n=13-15
[4] = M. pneumoniae-infected mice, 40mg/kg, intramuscular, n=13-15
[5] = M. pneumoniae-infected mice, 80mg/kg, intramuscular, n=13-15
[6] = compound 16C 20 mg/kg IM, 192 h
[7] = compound 16C 40 mg/kg IM, 192 h
[8] = compound 16C 40 mg/kg IM, from HPS at 192 h
[9] = compound 16C 80 mg/kg IM, 192 h
[10] = compound 16C 80 mg/kg IM, from HPS at 192 h

C=CC1(C)CC(OC(=O)CSc2ccc(NC(=O)Cc3ccc([N+](=O)[O-])cc3)cc2)C2(C)C(C)CCC3(CCC(=O)C32)C(C)C1O (stereo not drawn) [compound 16C, 22–((4-((4-nitrophenyl)acetamido)phenyl)thio)deoxypleuromutilin]
M. pneumoniae count in time-kill curve ([1]; 1×MIC, time 0): 7.809 | M. pneumoniae count in time-kill curve ([1]; 1×MIC, time 12): 7.011 | M. pneumoniae count in time-kill curve ([1]; 1×MIC, time 24): 6.5256 | M. pneumoniae count in time-kill curve ([1]; 1×MIC, time 36): 6.341 | M. pneumoniae count in time-kill curve ([1]; 1×MIC, time 48): 6.63 | M. pneumoniae count in time-kill curve ([1]; 1×MIC, time 60): 6.334 | M. pneumoniae count in time-kill curve ([1]; 1×MIC, time 72): 5.5397 | reduction of bacterial counts ([1]; 1–4 × MIC, 72 h): 2.27–2.60 log10 CFU/mL | M. pneumoniae count in time-kill curve ([1]; 2×MIC, time 0): 7.809 | M. pneumoniae count in time-kill curve ([1]; 2×MIC, time 12): 6.901 | M. pneumoniae count in time-kill curve ([1]; 2×MIC, time 24): 6.35 | M. pneumoniae count in time-kill curve ([1]; 2×MIC, time 36): 6.074 | M. pneumoniae count in time-kill curve ([1]; 2×MIC, time 48): 6.197 | M. pneumoniae count in time-kill curve ([1]; 2×MIC, time 60): 5.9 | M. pneumoniae count in time-kill curve ([1]; 2×MIC, time 72): 5.211 | M. pneumoniae count in time-kill curve ([1]; 4×MIC, time 0): 7.247 | M. pneumoniae count in time-kill curve ([1]; 4×MIC, time 12): 6.539 | M. pneumoniae count in time-kill curve ([1]; 4×MIC, time 24): 6.026 | M. pneumoniae count in time-kill curve ([1]; 4×MIC, time 36): 5.763 | M. pneumoniae count in time-kill curve ([1]; 4×MIC, time 48): 5.628 | M. pneumoniae count in time-kill curve ([1]; 4×MIC, time 60): 5.61 | M. pneumoniae count in time-kill curve ([1]; 4×MIC, time 72): 4.889 | M. pneumoniae count in time-kill curve ([1]; 8×MIC, time 0): 7.429 | M. pneumoniae count in time-kill curve ([1]; 8×MIC, time 12): 7.7 | M. pneumoniae count in time-kill curve ([1]; 8×MIC, time 24): 5.719 | M. pneumoniae count in time-kill curve ([1]; 8×MIC, time 36): 4.474 | M. pneumoniae count in time-kill curve ([1]; 8×MIC, time 48): 3.799 | M. pneumoniae count in time-kill curve ([1]; 8×MIC, time 60): 3 | M. pneumoniae count in time-kill curve ([1]; 8×MIC, time 72): 3.001 | M. pneumoniae count in time-kill curve ([1]; 16×MIC, time 0): 7.247 | M. pneumoniae count in time-kill curve ([1]; 16×MIC, time 12): 7.508 | M. pneumoniae count in time-kill curve ([1]; 16×MIC, time 24): 4.094 | M. pneumoniae count in time-kill curve ([1]; 16×MIC, time 36): 3.774 | M. pneumoniae count in time-kill curve ([1]; 16×MIC, time 48): 3.36 | M. pneumoniae count in time-kill curve ([1]; 16×MIC, time 60): 2.9656 | M. pneumoniae count in time-kill curve ([1]; 16×MIC, time 72): 2.848 | M. pneumoniae count in time-kill curve ([1]; 32×MIC, time 0): 7.065 | M. pneumoniae count in time-kill curve ([1]; 32×MIC, time 12): 6.342 | M. pneumoniae count in time-kill curve ([1]; 32×MIC, time 24): 6.583 | M. pneumoniae count in time-kill curve ([1]; 32×MIC, time 36): 4.407 | M. pneumoniae count in time-kill curve ([1]; 32×MIC, time 48): 3.894 | M. pneumoniae count in time-kill curve ([1]; 32×MIC, time 60): 3.568 | M. pneumoniae count in time-kill curve ([1]; 32×MIC, time 72): 2.774 | number of organisms (decreased to the LOD) ([1]; 64 × MIC, 72 h exposure): 2 log10 CFU/mL | M. pneumoniae count in time-kill curve ([1]; 64×MIC, time 0): 7.065 | M. pneumoniae count in time-kill curve ([1]; 64×MIC, time 12): 5.938 | M. pneumoniae count in time-kill curve ([1]; 64×MIC, time 24): 5.724 | M. pneumoniae count in time-kill curve ([1]; 64×MIC, time 36): 3.5819 | M. pneumoniae count in time-kill curve ([1]; 64×MIC, time 48): 3.199 | M. pneumoniae count in time-kill curve ([1]; 64×MIC, time 60): 2.961 | M. pneumoniae count in time-kill curve ([1]; 64×MIC, time 72): 2 | concentration at which bactericidal effect was achieved ([1]; static time-kill, 72 h): ≥ 8 × MIC | reduction of bacterial counts ([1]; ≥ 8×MIC, 72 h): > 3 log10 CFU/mL | Recovery [2, 3]: 20.00% | Response [2, 3]: 93.33% | Recovery [2, 4]: 35.7% | Response [2, 4]: 100% | Recovery [2, 5]: 50% | Response [2, 5]: 100% | HPS value (mean) ([2]; compound 16C 20 mg/kg IM, 96 h): 1.08 | HPS ([2]; compound 16C 20 mg/kg IM, 96 h): 0.5 and 1 and 1.5 | HPS value (mean) [2, 6]: 1 | HPS [2, 6]: 1 and 0 and 4 and 0.5 and 1.5 | Recovery ([2]; compound 16C 20 mg/kg IM, from HPS at 192 h (HPS reduced to 0)): 20.00% | Recovery ([2]; compound 16C 20 mg/kg IM, from HPS at 192 h (HPS reduced to 0), listed as Compound16C): 20% | Response ([2]; compound 16C 20 mg/kg IM, from HPS at 192 h, n = 13–15): 93.33% | HPS value (mean) ([2]; compound 16C 40 mg/kg IM, 96 h): 1 | HPS ([2]; compound 16C 40 mg/kg IM, 96 h): 1 and 1.5 and 0 | HPS value (mean) [2, 7]: 0.46 | HPS [2, 7]: 0.5 and 0 and 2 and 1 | Recovery [2, 8]: 35.7% | Response [2, 8]: 100% | HPS value (mean) ([2]; compound 16C 80 mg/kg IM, 96 h): 0.75 | HPS ([2]; compound 16C 80 mg/kg IM, 96 h): 0.5 and 0 and 1 | HPS value (mean) [2, 9]: 0.43 | HPS [2, 9]: 0 and 0.5 and 1 and 1.5 | Recovery [2, 10]: 50% | Response [2, 10]: 100%
